Assay results reported in US5763441A, “Compounds for the treatment of disorders related to vasculogenesis and/or angiogenesis” (Sugen, Inc., priority 1995, dated 1998).

What was measured:
[1] = tested on: VEGF-induced "reddening" response and subsequent swelling (FLK-1 receptor); test: In vivo VEGF pellet model; set-up: species or system nude mice (Balb/C athymic nu/nu); conditions: scored at 24 hours and 48 hours; drug in methylcellulose disc near VEGF pellet
Description: In this model, VEGF is packaged into a time-release pellet and implanted subcutaneously on the abdomen of nude mice to induce a `reddening` response and subsequent swelling around the pellet. Potential FLK-1 inhibitors may then be implanted in methylcellulose near the VEGF pellet ito determine whether such inhibitor may be used to inhibit the "reddening" response and subsequent swelling.
1) VEGF--human recombinant lyophilized product is commercially may be obtained from Peprotech, Inc., Princeton Business Park, G2; P.O. box 275, Rocky Hill, N.J. 08553.
2) VEGF packaged into 21 day release pellets were obtained from Innovative Research of America, using patented matrix driven delivery system. Pellets were packaged at […], 0.21, or 2.1 μg VEGF/pellet. These doses approximate 10 and 100 ng/day release of VEGF. (Innovative Research of America, 3361 Executive Parkway, P.O. box 2746, Toledo, Ohio 43606)
Protocol. The following protocol was then followed to conduct the VEGF pellet model:
1) VEGF, purchased from Peprotech, was sent to Innovative Research for Custom Pellet preparation;
2) Methylcellulose prepared at 1.5% (w/v) in sterile water;
3) Drugs solublized in methanol (usual concentration range=10 to 20 mg/ml);
4) Place sterile parafilm in sterile 10 cm plates; […]
9) Mice were scored at 24 hours and 48 hours for reddening and swelling response. […]

[2] = tested on: Calu-6; test: Tumor xenograft growth inhibition, Calu-6 (lung); format: in vivo, human
Description: The ability of one of the compounds of the present invention, leflunomide (Compound 40), to inhibit ovarian, melanoma, prostate, lung and mammary tumor cell lines established as SC xenografts was examined. […]
(§1) The tumor cells were implanted subcutaneously into the indicated strains of mice. Treatment was initiated on day 1 post implantation unless otherwise indicated (e.g. treatment of the SCID mouse related to the A375 melanoma cell line began on Day 9). Eight (8) to ten (10) mice comprised each test group.
(§2) Animals. Female athymic mice (BALB/c, nu/nu), BALB/c mice, Wistar rats and Fisher 344 rats were obtained from Simonsen Laboratories (Gilroy, Calif.). Female A/I mice were obtained from Jackson Laboratory (Bar Harbor, Me.). DA rats were obtained from B&K Universal, Inc. (Fremont, Calif.). Athymic R/Nu rats, DBA/2N mice, and BALB/c mice were obtained from Harlan Sprague Dawley (Indianapolis, Ind.). Female C57BL/6 mice were obtained from Taconic (Germantown, N.Y.). All animals were maintained under clean-room conditions in Micro-isolator cages with Alpha-dri bedding. They received sterile rodent chow and water ad libitum.
(§3) Subcutaneous Xenograft Model. Cell lines were grown in appropriate medium as described (See Section 6). Cells were harvested at or near confluency with 0.05% Trypsin-EDTA and pelleted at 450×g for 10 min. Pellets were resuspended in sterile PBS or media (without FBS) to a suitable concentration indicated in the Figure legends and the cells were implanted into the hindflank of mice. Tumor growth was measured over 3 to 6 weeks using venier calipers tumor volumes were calculated as a product of length x width x height unless otherwise indicated. P values were calculated using the Students' t-test. su101 in 50-100 uL excipient (dimethylsulfoxide, PBTE, PBTE6C:D5W, or PBTE:D5W) was delivered by IP injection at concentrations indicated in the Figure legends.

[3] = tested on: PA-1; test: Tumor xenograft growth inhibition, PA-1 (ovarian); format: in vivo, human
Description: (§4) The ability of one of the compounds of the present invention, leflunomide (Compound 40), to inhibit ovarian, melanoma, prostate, lung and mammary tumor cell lines established as SC xenografts was examined. These studies were conducted using doses ranging from 12 to 20 mg/kg/day.
as §1
Animals. Female athymic mice (BALB/c, nu/nu), BALB/c mice, Wistar rats and Fisher 344 rats were obtained from Simonsen Laboratories (Gilroy, Calif.). Female A/I mice were obtained from Jackson Laboratory (Bar Harbor, Me.). DA rats were obtained from B&K Universal, Inc. (Fremont, Calif.). Athymic R/Nu rats, DBA/2N mice, and BALB/c mice were obtained from Harlan Sprague Dawley (Indianapolis, Ind.). […]
Subcutaneous Xenograft Model. […] Tumor growth was measured over 3 to 6 weeks using venier calipers tumor volumes were calculated as a product of length x width x height unless otherwise indicated. P values were calculated using the Students' t-test. su101 in 50-100 uL excipient (dimethylsulfoxide, PBTE, PBTE6C:D5W, or PBTE:D5W) was delivered by IP injection at concentrations indicated in the Figure legends.

[4] = tested on: PC-3; test: Tumor xenograft growth inhibition, PC-3 (prostate); format: in vivo, human
Description: as §4, §1, §2, §3

[5] = molecular target: T1, FLK-1 receptor (Mus musculus, UniProt P35918); test: ELISA assay to measure kinase activity of FLK-1 receptor in FLK-1/NIH cells; format: cell-based, murine
T1 construct: expressed in transfected cells; host or cells: NIH3T3C7#3 cells (FLK-1 infected NIH3T3)
T1 sequence (P35918 20-1345): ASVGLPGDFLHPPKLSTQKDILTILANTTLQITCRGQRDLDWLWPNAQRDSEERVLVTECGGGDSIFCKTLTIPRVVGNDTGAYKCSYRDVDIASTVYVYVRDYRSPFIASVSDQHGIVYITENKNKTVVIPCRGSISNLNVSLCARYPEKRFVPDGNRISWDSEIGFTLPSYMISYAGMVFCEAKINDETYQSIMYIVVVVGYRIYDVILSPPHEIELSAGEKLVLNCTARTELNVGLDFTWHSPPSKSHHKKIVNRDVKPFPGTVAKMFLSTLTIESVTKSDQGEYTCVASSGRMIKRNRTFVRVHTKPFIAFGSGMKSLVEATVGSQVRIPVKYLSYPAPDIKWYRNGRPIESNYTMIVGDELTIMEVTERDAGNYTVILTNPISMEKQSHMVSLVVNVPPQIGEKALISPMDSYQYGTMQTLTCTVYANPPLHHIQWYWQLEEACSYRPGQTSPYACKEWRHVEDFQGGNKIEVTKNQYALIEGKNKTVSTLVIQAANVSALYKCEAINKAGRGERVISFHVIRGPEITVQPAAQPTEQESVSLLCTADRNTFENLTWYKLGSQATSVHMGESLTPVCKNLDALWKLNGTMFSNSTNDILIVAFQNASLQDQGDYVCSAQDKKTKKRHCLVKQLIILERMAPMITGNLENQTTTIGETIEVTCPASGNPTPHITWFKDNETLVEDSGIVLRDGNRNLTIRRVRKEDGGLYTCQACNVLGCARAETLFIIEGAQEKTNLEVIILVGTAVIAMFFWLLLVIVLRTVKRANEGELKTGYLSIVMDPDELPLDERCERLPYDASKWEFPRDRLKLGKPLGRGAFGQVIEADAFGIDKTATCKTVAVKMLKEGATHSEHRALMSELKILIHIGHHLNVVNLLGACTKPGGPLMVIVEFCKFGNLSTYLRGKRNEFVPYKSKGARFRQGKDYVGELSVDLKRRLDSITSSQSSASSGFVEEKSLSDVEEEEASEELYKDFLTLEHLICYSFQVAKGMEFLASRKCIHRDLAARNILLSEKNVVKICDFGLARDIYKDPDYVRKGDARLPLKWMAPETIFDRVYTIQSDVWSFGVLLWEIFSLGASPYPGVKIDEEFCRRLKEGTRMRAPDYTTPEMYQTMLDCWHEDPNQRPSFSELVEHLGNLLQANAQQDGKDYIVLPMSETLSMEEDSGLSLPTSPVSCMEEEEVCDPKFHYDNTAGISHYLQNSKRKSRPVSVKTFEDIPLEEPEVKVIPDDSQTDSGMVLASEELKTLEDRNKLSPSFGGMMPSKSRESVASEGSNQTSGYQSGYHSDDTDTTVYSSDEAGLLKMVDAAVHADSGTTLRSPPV
Description: ELISA Assay To Measure Kinase Activity Of FLK-1 Receptor In FLK-1/NIH Cells
An ELISA assay was conducted to measure the kinase activity of the FLK-1 receptor and more specifically, the inhibition or activiation of protein tyrosine kinase activity on the FLK-1 receptor.
k. NIH3T3C7#3 Cells (FLK-1 infected cells);
Protocol. The following protocol was used to conduct the ELISA Assay:
1. Coat Corning 96-well elisa plates with 1.0 ug per well Cappel Anti-rabbit IgG antibody in 0.1M Na2CO3 pH 9.6. Bring final volume to 150 ul per well. Coat plates overnight at 4° C. Plates can be kept up to two weeks when stored at 4° C.
2. Grow cells in 30 ml of Growth media 9DMEM. 2.0 mM L-Glutamine, 10% FBS) until confluent in 150 cm tissue culture dishes at 37° C., 5% CO2.
3. Harvest cells by tyrpsination and seed in Corning 25850 polystyrene 96-well roundbottom cell plates, 25.000 cells/well in 200 uL of growth media.
4. Grow cells at least one day at 37° C., 5% CO2.
5. Wash cells with D-PBS 1X.
6. Add 200 ul/well of starvation media (DMEM, 2.0 mM l-Glutamine, 0.1% FBS). Incubate overnight at 37° C., 5% CO2.
7. Dilute Compounds/Extracts 1:20 in polyproplyene 96 well plates using starvation media. Dilute dimethylsulfoxide 1:20 for use in control wells.
8. Remove starvation media from 96 well cell culture plates and add 162 ul of fresh starvation media to each well.
9. Add 18 ul of 1:20 diluted Compound/Extract dilution (from step #7) to each well plus the 1:20 dimethylsulfoxide dilution to the control wells (+/-VEGF), for a final dilution of 1:200 after cell stimulation. Final dimethylsulfoxide is 0.5%. Incubate the plate at 37° C., 5% CO2 for two hours.
10. Remove unbound antibody from Elisa plates by inverting plate to remove liquid. Wash 3 times with TBSW+0.5% Ethanolamine, pH 7.0. Pat the plate on a paper towel to remove excess liquid and bubbles.
11. Block plates with TBSW+0.5% Ethanolamine, pH 7.0. 150 ul per well. Incubate plate thirty minutes while shaking on a microtiter plate shaker.
12. Wash plate 3 times as described in step 10.
13. Add 0.5 ug/well affinity purified anti-flk-1 polyclonal rabbit antiserum. Bring final volume to 150 ul/well with TBSW+0.5k Ethanolamine pH 7.0. Incubate plate for thirty minutes while shaking.
14. Add 180 μl starvation medium to the cells and stimulate cells with 20 ul/well 10.0 mM Sodium Ortho Vanadate and 500 ng/ml VEGF (resulting in a final concentration of 1.0 mM Sodium Ortho Vanadate and 50 ng/ml VEGF per well) for eight minutes at 37° C., 5% CO2. Negative control wells receive only starvation medium.
15. After eight minutes, media are removed from the cells and washed one time with 200 ul/well PBS.
16. Lyse cells in 150 ul/well HNTG while shaking at room temperature for five minutes. HNTG formulation includes sodium ortho vanadate, sodium pyro phosphate and EDTA.
17. Wash Elisa plate three times as described in step 10.
18. Transfer cell lysates from the cell plate to elisa plate and incubate while shaking for two hours. To transfer cell lysate pipette up and down while scrapping the wells.
19. Wash plate three times as described in step 10.
20. Incubate Elisa plate with 0.02 ug/well UB40 in TBSW+05% ethanolamine. Bring final volume to 150 ul/well. Incubate while shaking for 30 minutes.
21. Wash plate three times as described in step 10.
22. Incubate elisa plate with 1:10,000 diluted EIA grade Goat anti-mouse IgG conjugated horseradish peroxidase in TBSW+0.5% ethanolamine, pH 7.0. Bring final volume to 150 ul/well. Incubate while shaking for thirty minutes.
23. Wash plate as described in step 10.
24. Add 100 ul of ABTS/H202 solution to well. Incubate ten minutes while shaking.
25. Add 100 ul of 0.2M HCL for 0.1M HCL final to stop the colordevelopment reaction. Shake 1 minute at room temperature. Remove bubbles with slow stream of air and read the ELISA plate in an ELISA plate reader at 410 nm.

[6] = tested on: A375; test: Tumor xenograft growth inhibition, A375 (melanoma); format: in vivo, human; conditions: for % Inhibition (day): day 31
Description: as §4, §1, §2, §3

Structure (SMILES) | inhibition of the "reddening" response and subsequent swelling [1] | inhibition, CALU-6 ([2]; 20 mg/kg/day) [%] | inhibition of the growth of human lung (Calu-6) ([2]; in words) | % Inhibition (day) ([2]; nu/nu, 20 mg/kg/day, day 28, P < 0.0001) [%] | inhibition of the growth of human ovarian (PA-1) ([3]; in words) | % Inhibition (day) ([3]; nu/nu, 20 mg/kg/day, day 36, P < 0.04) [%] | % Inhibition (day) ([4]; SCID (day 15), 12 mg/kg/day, day 36, P < 0.001) [%] | inhibition of the growth of human prostate (PC-3) ([4]; in words) | % Inhibition (day) ([4]; nu/nu, 20 mg/kg/day, day 45, P < 0.01) [%] | IC50 [5] [µM] | % Inhibition (day) ([6]; SCID (day 9), 15 mg/kg/day, P < 0.002) [%] | inhibition of the growth of human melanoma (A375) ([6]; in words) | % Inhibition (day) ([6]; nu/nu, 20 mg/kg/day, P < 0.03) [%]
COc1cc2ncnc(Nc3ccc(I)cc3)c2cc1OC [Compound 15, 4-(4-iodophenylamino)-6,7-dimethoxy quinazoline] | inhibited the "reddening" response and subsequent swelling | – | – | – | – | – | – | – | – | – | – | – | –
Cc1oncc1C(=O)Nc1ccc(C(F)(F)F)cc1 [Compound 40, leflunomide] | – | 63.9 | effectively inhibited the growth | 64 | effectively inhibited the growth | 53 | 47 | effectively inhibited the growth | 71 | 54 | 53 | effectively inhibited the growth | 53
CC(C)c1cc(/C=C(\C#N)C(=O)NCCCc2ccccc2)cc(C(C)C)c1O [Compound 5] | inhibited the "reddening" response and subsequent swelling | – | – | – | – | – | – | – | – | 0.7 | – | – | –
